Source: US12077503B2, “Substituted cyclic amides and their use as herbicides” (FMC CORPORATION, priority 2015, dated 2024)

Key:
Experiment in all cases: Test C preemergence
Assay type in all cases: in vivo
[1] = tested on: Galium (catchweed bedstraw, Galium aparine); conditions: for Plant response rating, Galium: scale 0 to 100, 0 no effect, 100 complete control
How it was run: (§1)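 Visual 0 (no effect) to 100 (complete control) ratings versus controls, taken 13–15 d after treatment in the greenhouse; dash means no result. Compounds in a surfactant-containing non-phytotoxic solvent blend were applied preemergence to seeds in loam-sand soil or postemergence to 1- to 4-leaf plants (2–18 cm) in peat-based medium.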

[2] = tested on: ragweed (common ragweed, Ambrosia elatior); conditions: for Plant response rating, Ragweed: scale 0 to 100, 0 no effect, 100 complete control
How it was run: as §1

[3] = tested on: corn (Zea mays); conditions: for Plant response rating, Corn: scale 0 to 100, 0 no effect, 100 complete control
How it was run: as §1

[4] = tested on: foxtail, giant (giant foxtail, Setaria faberii); conditions: for Plant response rating, Foxtail, Giant: scale 0 to 100, 0 no effect, 100 complete control
How it was run: as §1

[5] = tested on: johnsongrass (Sorghum halepense); conditions: for Plant response rating, Johnsongrass: scale 0 to 100, 0 no effect, 100 complete control
How it was run: as §1

[6] = tested on: barnyardgrass (Echinochloa crus-galli); conditions: for Plant response rating, Barnyardgrass: scale 0 to 100, 0 no effect, 100 complete control
How it was run: as §1

[7] = tested on: morningglory (Ipomoea coccinea); conditions: for Plant response rating, Morningglory: scale 0 to 100, 0 no effect, 100 complete control
How it was run: as §1

[8] = tested on: crabgrass, large (large crabgrass, Digitaria sanguinalis); conditions: for Plant response rating, Crabgrass, Large: scale 0 to 100, 0 no effect, 100 complete control
How it was run: as §1

[9] = tested on: ryegrass, Italian (Italian ryegrass, Lolium multiflorum); conditions: for Plant response rating, Ryegrass, Italian: scale 0 to 100, 0 no effect, 100 complete control
How it was run: as §1

[10] = tested on: oilseed rape (Brassica napus); conditions: for Plant response rating, Oilseed Rape: scale 0 to 100, 0 no effect, 100 complete control
How it was run: as §1

[11] = tested on: lambsquarters (Chenopodium album); conditions: for Plant response rating, Lambsquarters: scale 0 to 100, 0 no effect, 100 complete control
How it was run: as §1

[12] = tested on: nutsedge, yellow (yellow nutsedge, Cyperus esculentus); conditions: for Plant response rating, Nutsedge, Yellow: scale 0 to 100, 0 no effect, 100 complete control
How it was run: as §1

[13] = tested on: waterhemp (common waterhemp, Amaranthus rudis); conditions: for Plant response rating, Waterhemp: scale 0 to 100, 0 no effect, 100 complete control
How it was run: as §1

[14] = tested on: velvetleaf (Abutilon theophrasti); conditions: for Plant response rating, Velvetleaf: scale 0 to 100, 0 no effect, 100 complete control
How it was run: as §1

[15] = tested on: wheat (winter wheat, Triticum aestivum); conditions: for Plant response rating, Wheat: scale 0 to 100, 0 no effect, 100 complete control
How it was run: as §1

[16] = tested on: soybean (Glycine max); conditions: for Plant response rating, Soybean: scale 0 to 100, 0 no effect, 100 complete control
How it was run: as §1

[17] = tested on: pigweed (Amaranthus retroflexus); conditions: for Plant response rating, Pigweed: scale 0 to 100, 0 no effect, 100 complete control
How it was run: as §1

[18] = 31 g ai/ha, 0 is no effect, 100 is complete control

Q: Which “Plant response rating (scale of 0 to 100), Galium” value [1, 18] does the source give for `O=C1NCC(c2cc(F)cc(Cl)c2)C1C(=O)Nc1cccc(F)c1F` (centres unmarked) [Compound 492] here?
A: The value was 85.

Q: What about the “Plant response rating, Galium” value ([1]; 62 g ai/ha) of the same molecule?
A: The value was 0.

Q: And the “Plant response rating, Galium” value ([1]; 125 g ai/ha)?
A: Its value is 0.

Q: What about the “Plant response rating, Galium” value ([1]; 250 g ai/ha) of the same molecule?
A: Its value is 85.

Q: What about the “Plant response rating (scale of 0 to 100), Ragweed” value [2, 18] of the same molecule?
A: The value was 0.

Q: And the “Plant response rating, Ragweed” value ([2]; 62 g ai/ha)?
A: The value was 10.

Q: And the “Plant response rating, Ragweed” value ([2]; 125 g ai/ha)?
A: Its value is 35.

Q: And the “Plant response rating, Ragweed” value ([2]; 250 g ai/ha)?
A: The value was 45.

Q: What about the “Plant response rating (scale of 0 to 100), Corn” value [3, 18] of the same molecule?
A: Its value is 0.

Q: And the “Plant response rating, Corn” value ([3]; 62 g ai/ha)?
A: The value was 10.

Q: And the “Plant response rating, Corn” value ([3]; 125 g ai/ha)?
A: Its value is 55.

Q: What about the “Plant response rating, Corn” value ([3]; 250 g ai/ha) of the same molecule?
A: The value was 85.

Q: And the “Plant response rating (scale of 0 to 100), Foxtail, Giant” value [4, 18]?
A: The value was 90.

Q: And the “Plant response rating, Foxtail, Giant” value ([4]; 62 g ai/ha)?
A: The value was 90.

Q: What about the “Plant response rating, Foxtail, Giant” value ([4]; 125 g ai/ha) of the same molecule?
A: Its value is 90.

Q: What about the “Plant response rating, Foxtail, Giant” value ([4]; 250 g ai/ha) of the same molecule?
A: The value was 95.

Q: What about the “Plant response rating (scale of 0 to 100), Johnsongrass” value [5, 18] of the same molecule?
A: Its value is 20.

Q: And the “Plant response rating, Johnsongrass” value ([5]; 62 g ai/ha)?
A: Its value is 55.

Q: What about the “Plant response rating, Johnsongrass” value ([5]; 125 g ai/ha) of the same molecule?
A: Its value is 80.

Q: And the “Plant response rating, Johnsongrass” value ([5]; 250 g ai/ha)?
A: Its value is 90.

Q: What about the “Plant response rating (scale of 0 to 100), Barnyardgrass” value [6, 18] of the same molecule?
A: The value was 80.

Q: And the “Plant response rating, Barnyardgrass” value ([6]; 62 g ai/ha)?
A: The value was 90.

Q: What about the “Plant response rating, Barnyardgrass” value ([6]; 125 g ai/ha) of the same molecule?
A: The value was 90.

Q: And the “Plant response rating, Barnyardgrass” value ([6]; 250 g ai/ha)?
A: The value was 95.

Q: What about the “Plant response rating (scale of 0 to 100), Morningglory” value [7, 18] of the same molecule?
A: Its value is 0.

Q: And the “Plant response rating, Morningglory” value ([7]; 62 g ai/ha)?
A: Its value is 10.

Q: And the “Plant response rating, Morningglory” value ([7]; 125 g ai/ha)?
A: Its value is 20.

Q: What about the “Plant response rating, Morningglory” value ([7]; 250 g ai/ha) of the same molecule?
A: Its value is 45.

Q: What about the “Plant response rating (scale of 0 to 100), Crabgrass, Large” value [8, 18] of the same molecule?
A: The value was 90.

Q: And the “Plant response rating, Crabgrass, Large” value ([8]; 62 g ai/ha)?
A: Its value is 95.

Q: And the “Plant response rating, Crabgrass, Large” value ([8]; 125 g ai/ha)?
A: The value was 95.

Q: And the “Plant response rating, Crabgrass, Large” value ([8]; 250 g ai/ha)?
A: Its value is 95.

Q: And the “Plant response rating (scale of 0 to 100), Ryegrass, Italian” value [9, 18]?
A: The value was 0.

Q: And the “Plant response rating, Ryegrass, Italian” value ([9]; 62 g ai/ha)?
A: The value was 5.

Q: And the “Plant response rating, Ryegrass, Italian” value ([9]; 125 g ai/ha)?
A: Its value is 25.

Q: And the “Plant response rating, Ryegrass, Italian” value ([9]; 250 g ai/ha)?
A: Its value is 20.

Q: What about the “Plant response rating (scale of 0 to 100), Oilseed Rape” value [10, 18] of the same molecule?
A: Its value is 0.

Q: And the “Plant response rating, Oilseed Rape” value ([10]; 62 g ai/ha)?
A: Its value is 50.

Q: And the “Plant response rating, Oilseed Rape” value ([10]; 125 g ai/ha)?
A: Its value is 85.

Q: And the “Plant response rating, Oilseed Rape” value ([10]; 250 g ai/ha)?
A: The value was 85.

Q: What about the “Plant response rating (scale of 0 to 100), Lambsquarters” value [11, 18] of the same molecule?
A: The value was 25.

Q: And the “Plant response rating, Lambsquarters” value ([11]; 62 g ai/ha)?
A: The value was 35.

Q: What about the “Plant response rating, Lambsquarters” value ([11]; 125 g ai/ha) of the same molecule?
A: Its value is 40.

Q: And the “Plant response rating, Lambsquarters” value ([11]; 250 g ai/ha)?
A: Its value is 50.

Q: And the “Plant response rating (scale of 0 to 100), Nutsedge, Yellow” value [12, 18]?
A: Its value is 0.

Q: What about the “Plant response rating, Nutsedge, Yellow” value ([12]; 62 g ai/ha) of the same molecule?
A: The value was 0.

Q: And the “Plant response rating, Nutsedge, Yellow” value ([12]; 125 g ai/ha)?
A: Its value is 0.

Q: What about the “Plant response rating, Nutsedge, Yellow” value ([12]; 250 g ai/ha) of the same molecule?
A: Its value is 0.

Q: What about the “Plant response rating (scale of 0 to 100), Waterhemp” value [13, 18] of the same molecule?
A: The value was 0.

Q: And the “Plant response rating, Waterhemp” value ([13]; 62 g ai/ha)?
A: The value was 10.

Q: What about the “Plant response rating, Waterhemp” value ([13]; 125 g ai/ha) of the same molecule?
A: The value was 40.

Q: And the “Plant response rating, Waterhemp” value ([13]; 250 g ai/ha)?
A: Its value is 65.

Q: What about the “Plant response rating (scale of 0 to 100), Velvetleaf” value [14, 18] of the same molecule?
A: The value was 0.

Q: What about the “Plant response rating, Velvetleaf” value ([14]; 62 g ai/ha) of the same molecule?
A: Its value is 0.

Q: What about the “Plant response rating, Velvetleaf” value ([14]; 125 g ai/ha) of the same molecule?
A: Its value is 5.

Q: And the “Plant response rating, Velvetleaf” value ([14]; 250 g ai/ha)?
A: The value was 5.

Q: What about the “Plant response rating (scale of 0 to 100), Wheat” value [15, 18] of the same molecule?
A: Its value is 0.

Q: And the “Plant response rating, Wheat” value ([15]; 62 g ai/ha)?
A: Its value is 0.

Q: And the “Plant response rating, Wheat” value ([15]; 125 g ai/ha)?
A: Its value is 5.

Q: What about the “Plant response rating, Wheat” value ([15]; 250 g ai/ha) of the same molecule?
A: Its value is 35.

Q: And the “Plant response rating (scale of 0 to 100), Soybean” value [16, 18]?
A: Its value is 50.

Q: And the “Plant response rating, Soybean” value ([16]; 62 g ai/ha)?
A: The value was 0.

Q: What about the “Plant response rating, Soybean” value ([16]; 125 g ai/ha) of the same molecule?
A: The value was 40.

Q: What about the “Plant response rating, Soybean” value ([16]; 250 g ai/ha) of the same molecule?
A: The value was 0.

Q: And the “Plant response rating (scale of 0 to 100), Pigweed” value [17, 18]?
A: Its value is 0.

Q: And the “Plant response rating, Pigweed” value ([17]; 62 g ai/ha)?
A: The value was 25.

Q: And the “Plant response rating, Pigweed” value ([17]; 125 g ai/ha)?
A: Its value is 75.

Q: What about the “Plant response rating, Pigweed” value ([17]; 250 g ai/ha) of the same molecule?
A: Its value is 80.
